Source: the supplement of paper PMC13380429
Structures can show the parent of a compound that is named as a salt.

Columns and labels:
[1] = test system: Caco-2; assay: relative viability EC50 (midpoint between 100% and the lowest measured viability); higher = less toxic; conditions: 72 h
[2] = test system: Vero E6; assay: as above; conditions: 72 h
[3] = test system: HepG2; assay: as above; conditions: 72 h
[4] = test system: Calu-3; assay: as above; conditions: 72 h
[5] = test system: Caco-2; assay: cell viability relative to DMSO; higher = less toxic; conditions: 72 h
[6] = test system: Vero E6; assay: as above; conditions: 72 h
[7] = test system: HepG2; assay: as above; conditions: 72 h
[8] = test system: Calu-3; assay: as above; conditions: 72 h
[9] = test system: U2OS; assay: as above; conditions: 72 h
[10] = test system: A549-ACE2 infected with SARS-CoV-2; assay: cell count relative to DMSO; higher = less toxic; conditions: 24 h
[11] = test system: A549-ACE2 infected with SARS-CoV-2; assay: morphology score (similarity to uninfected cells); higher = more like uninfected cells; conditions: 24 h
[12] = test system: A549-ACE2; assay: phospholipidosis EC50; higher = less potent phospholipidosis inducer
[13] = test system: A549-ACE2 infected with SARS-CoV-2; assay: SARS-CoV-2 infection rate relative to DMSO; higher = more infection; conditions: 24 h
[14] = test system: Caco-2; assay: drug sensitivity score (DSS) for viability; higher = more toxic; extreme values may be limits of the assay; conditions: 72 h
[15] = test system: Vero E6; assay: as above; conditions: 72 h
[16] = test system: HepG2; assay: as above; conditions: 72 h
[17] = test system: Calu-3; assay: as above; conditions: 72 h
[18] = test system: U2OS; assay: as above; conditions: 72 h
[19] = test system: A549-ACE2; assay: drug-induced phospholipidosis relative to tamoxifen; higher = more phospholipidosis
[20] = test system: U2OS; assay: relative viability EC50 (midpoint between 100% and the lowest measured viability); higher = less toxic; conditions: 72 h

CC(C)c1ccc(C(=O)c2cccs2)c(SCCCCCCCCN(C)C)n1
Conditions	drug sensitivity score	relative viability EC50 [µM]
[1]	–	2.32
[2]	–	> 10
[3]	–	3.39
[4]	–	3.55
[14]	3.7	–
[15]	1.4	–
[16]	3.6	–
[17]	3.6	–
[18]	1.3	–

Conditions	SARS-CoV-2 infection rate [%]	cell count [%]	cell viability [%]	morphology score	phospholipidosis EC50 [µM]
[5], 1 nM	–	–	106	–	–
[5], 10 nM	–	–	91.6	–	–
[5], 100 nM	–	–	97.6	–	–
[5], 1000 nM	–	–	94.6	–	–
[5], 10000 nM	–	–	47.3	–	–
[6], 1 nM	–	–	100	–	–
[6], 10 nM	–	–	99.8	–	–
[6], 100 nM	–	–	101	–	–
[6], 1000 nM	–	–	94.6	–	–
[6], 10000 nM	–	–	78.4	–	–
[7], 1 nM	–	–	97.9	–	–
[7], 10 nM	–	–	94.6	–	–
[7], 100 nM	–	–	109	–	–
[7], 1000 nM	–	–	103	–	–
[7], 10000 nM	–	–	29.4	–	–
[8], 1 nM	–	–	101	–	–
[8], 10 nM	–	–	120	–	–
[8], 100 nM	–	–	97.4	–	–
[8], 1000 nM	–	–	106	–	–
[8], 10000 nM	–	–	27.9	–	–
[9], 1 nM	–	–	99.4	–	–
[9], 10 nM	–	–	95.9	–	–
[9], 100 nM	–	–	101	–	–
[9], 1000 nM	–	–	98.9	–	–
[9], 10000 nM	–	–	71.6	–	–
[10], 0.1 µM	–	98	–	–	–
[10], 0.3 µM	–	101	–	–	–
[10], 1 µM	–	111	–	–	–
[10], 3 µM	–	123	–	–	–
[11], 0.1 µM	–	–	–	-0.04	–
[11], 0.3 µM	–	–	–	0.17	–
[11], 1 µM	–	–	–	0.57	–
[11], 3 µM	–	–	–	0.88	–
[12], 24 h	–	–	–	–	2.88
[12], 48 h	–	–	–	–	2.9
[12], 72 h	–	–	–	–	4.11
[13], 0.1 µM	99	–	–	–	–
[13], 0.3 µM	95	–	–	–	–
[13], 1 µM	74	–	–	–	–
[13], 3 µM	23	–	–	–	–

drug-induced phospholipidosis [%], [19]
Conditions	0.3 µM	0.833333 µM	3.33333 µM	6.66667 µM	10 µM	30 µM
24 h	6.35	10.2	76.1	105	129	33.4
48 h	4.72	6.5	79.5	112	127	–
72 h	0.841	8.09	57.5	114	131	–

COc1cc(COc2cc(N)c(Cl)cc2C(=O)CCC2CCN(CCNS(C)(=O)=O)CC2)cc(OC)c1
Conditions	drug sensitivity score	relative viability EC50 [µM]
[1]	–	> 10
[2]	–	2.74
[4]	–	> 10
[14]	0	–
[15]	4.4	–
[16]	2.1	–
[17]	0	–
[18]	2	–

Conditions	SARS-CoV-2 infection rate [%]	cell count [%]	cell viability [%]	morphology score	phospholipidosis EC50 [µM]
[5], 1 nM	–	–	107	–	–
[5], 10 nM	–	–	102	–	–
[5], 100 nM	–	–	95.9	–	–
[5], 1000 nM	–	–	110	–	–
[5], 10000 nM	–	–	88.3	–	–
[6], 1 nM	–	–	96.8	–	–
[6], 10 nM	–	–	97.8	–	–
[6], 100 nM	–	–	93.3	–	–
[6], 1000 nM	–	–	96.1	–	–
[6], 10000 nM	–	–	29.4	–	–
[7], 1 nM	–	–	95	–	–
[7], 10 nM	–	–	102	–	–
[7], 100 nM	–	–	98.8	–	–
[7], 1000 nM	–	–	92.5	–	–
[7], 10000 nM	–	–	73.1	–	–
[8], 1 nM	–	–	99	–	–
[8], 10 nM	–	–	106	–	–
[8], 100 nM	–	–	94.6	–	–
[8], 1000 nM	–	–	105	–	–
[8], 10000 nM	–	–	98.6	–	–
[9], 1 nM	–	–	98.8	–	–
[9], 10 nM	–	–	96.2	–	–
[9], 100 nM	–	–	100	–	–
[9], 1000 nM	–	–	101	–	–
[9], 10000 nM	–	–	58.7	–	–
[10], 0.1 µM	–	97	–	–	–
[10], 0.3 µM	–	102	–	–	–
[10], 1 µM	–	105	–	–	–
[10], 3 µM	–	118	–	–	–
[11], 0.1 µM	–	–	–	-0.18	–
[11], 0.3 µM	–	–	–	-0.13	–
[11], 1 µM	–	–	–	0.08	–
[11], 3 µM	–	–	–	0.56	–
[12], 24 h	–	–	–	–	10.8
[13], 0.1 µM	106	–	–	–	–
[13], 0.3 µM	102	–	–	–	–
[13], 1 µM	93	–	–	–	–
[13], 3 µM	69	–	–	–	–

drug-induced phospholipidosis [%], [19]
Conditions	0.3 µM	0.833333 µM	3.33333 µM	6.66667 µM	10 µM	30 µM
24 h	7	-3.07	1.58	15.2	28.5	59.3
48 h	8.74	0.25	7.6	19.6	29.2	–
72 h	9.15	2.57	12.6	21.2	34.8	–

Cc1nc(Nc2cnn(C3CCNCC3)c2)nc2c1N(C)C(=O)c1cc3ccccc3cc1N2C [HTH-01-015]
Conditions	drug sensitivity score	relative viability EC50 [µM]
[1]	–	> 10
[14]	0.6	–
[15]	1.2	–
[16]	1	–
[17]	1.6	–
[18]	2	–

Conditions	SARS-CoV-2 infection rate [%]	cell count [%]	cell viability [%]	morphology score	phospholipidosis EC50 [µM]
[5], 1 nM	–	–	94.7	–	–
[5], 10 nM	–	–	99.7	–	–
[5], 100 nM	–	–	97.7	–	–
[5], 1000 nM	–	–	103	–	–
[5], 10000 nM	–	–	77.7	–	–
[6], 1 nM	–	–	106	–	–
[6], 10 nM	–	–	106	–	–
[6], 100 nM	–	–	104	–	–
[6], 1000 nM	–	–	98.5	–	–
[6], 10000 nM	–	–	74.1	–	–
[7], 1 nM	–	–	106	–	–
[7], 10 nM	–	–	89.3	–	–
[7], 100 nM	–	–	101	–	–
[7], 1000 nM	–	–	109	–	–
[7], 10000 nM	–	–	67.7	–	–
[8], 1 nM	–	–	97.1	–	–
[8], 10 nM	–	–	108	–	–
[8], 100 nM	–	–	99.1	–	–
[8], 1000 nM	–	–	108	–	–
[8], 10000 nM	–	–	59.4	–	–
[9], 1 nM	–	–	101	–	–
[9], 10 nM	–	–	108	–	–
[9], 100 nM	–	–	100	–	–
[9], 1000 nM	–	–	107	–	–
[9], 10000 nM	–	–	53.1	–	–
[10], 0.1 µM	–	97	–	–	–
[10], 0.3 µM	–	102	–	–	–
[10], 1 µM	–	103	–	–	–
[10], 3 µM	–	99	–	–	–
[11], 0.1 µM	–	–	–	-0.27	–
[11], 0.3 µM	–	–	–	0.2	–
[11], 1 µM	–	–	–	0.05	–
[11], 3 µM	–	–	–	0.67	–
[12], 24 h	–	–	–	–	3.28
[12], 48 h	–	–	–	–	3.72
[13], 0.1 µM	105	–	–	–	–
[13], 0.3 µM	105	–	–	–	–
[13], 1 µM	100	–	–	–	–
[13], 3 µM	77	–	–	–	–

drug-induced phospholipidosis [%], [19]
Conditions	0.3 µM	0.833333 µM	3.33333 µM	6.66667 µM	10 µM	30 µM
24 h	2.9	6.1	51.1	120	118	24.5
48 h	6.71	6.12	41.5	172	169	–
72 h	6.1	4.78	42.6	–	–	–

C[C@H](N)Cc1c[nH]cn1 [alpha-methylhistamine-dihydrobromide-(S)-(+)]
Conditions	drug sensitivity score	relative viability EC50 [µM]
[1]	–	> 10
[2]	–	> 10
[3]	–	> 10
[4]	–	> 10
[14]	0	–
[15]	0	–
[16]	0	–
[17]	0	–
[18]	0	–
[20]	–	> 10

Conditions	SARS-CoV-2 infection rate, [13] [%]	cell count, [10] [%]	cell viability, [5] [%]	cell viability, [6] [%]	cell viability, [7] [%]	cell viability, [8] [%]	cell viability, [9] [%]	morphology score, [11]
1 nM	–	–	93.5	94.7	96.1	100	98.9	–
10 nM	–	–	87.9	96.5	103	105	96.9	–
100 nM	–	–	95.2	92.7	93	98.2	101	–
0.3 µM	96	109	–	–	–	–	–	0.22
1000 nM	–	–	98.5	96.5	100.2	100	101	–
3 µM	101	104	–	–	–	–	–	0.16
10000 nM	–	–	96.6	105	94.8	101	99.2	–
10 µM	90	104	–	–	–	–	–	0.28
30 µM	104	98	–	–	–	–	–	-0.09

drug-induced phospholipidosis [%], [19]
Conditions	0.3 µM	0.833333 µM	3.33333 µM	6.66667 µM	10 µM	30 µM
24 h	1.4	-2.09	-0.4	-0.13	-1.06	2.88
48 h	2.76	-1.54	-1.15	-0.6	0.05	3.3
72 h	2.88	-1.77	-1.17	-0.807	0.33	4.01
